Test results reported in PMC6891666, “Identifying Phlorofucofuroeckol-A as a Dual Inhibitor of Amyloid-β25-35 Self-Aggregation and Insulin Glycation: Elucidation of the Molecular Mechanism of Action” (Marine Drugs, 2019).
Read-outs that look alike come from different tables or passages of the source.

How the values were obtained:
Aβ25-35 = biological target: T1, Aβ25-35 (Homo sapiens, UniProt P05067); experiment: Aβ25-35 self-aggregation assay (thioflavin-T fluorescence); assay type: biochemical; settings: for inhibition at 10 µM: read-out: inhibition of Aβ25-35 self-aggregation
T1 construct: Gly1 and Phe1 for insulin) and C-terminals (Met35 for Aβ25-35; purchased Sigma-Aldrich
Protocol: A monomeric Aβ25-35 solution was prepared using the method of Naldi and coworkers. A 2.5 μL aliquot of various concentrations of the tested phlorotannins in 50 mM phosphate buffer (pH 7.4) with 100 mM NaCl was added to 72.5 μL of Aβ25-35 sample (100 μM), and the mixture was incubated at 4 °C for 1 day. After incubation, 25 μM thioflavin T in 50 mM glycine-NaOH buffer (pH 8.5) was added to the reaction mixture. Fluorescence emission intensity was monitored at 490 nm (λexc = 446 nm) using a fluorescence microplate reader (Gemini XPS, Molecular Devices, Sunnyvale, CA, USA).

bovine insulin [1] = biological target: T2, bovine insulin (Bos taurus, UniProt P01317); experiment: D-glucose-induced non-enzymatic insulin glycation assay; assay type: biochemical
T2 construct: Phe1 and Asn3 in chain B and Ser12, Gln15, Glu17, and Asn18 in chain A of the insulin; purchased Sigma-Aldrich; host or cells: bovine pancreas
Protocol: (§1) Glycated bovine insulin was observed by fluorescence spectroscopy because AGEs are marked by a typical fluorescence emission at 410 nm (excitation at 320 nm). To verify our experimental condition, we used vanillin as a negative control for D-ribose-induced protein glycation and rutin as a positive control for d-glucose-induced protein glycation.
(§2) The insulin from bovine pancreas was dissolved in third grade distilled water to a concentration of 6 mg/mL and acidified to pH 2.4 using phosphoric acid to produce monomeric insulin. Then the insulin solution was neutralized to pH 7.0 using 10 M NaOH. Non-enzymatic glycation of insulin was initiated by mixing the insulin solution, 0.5 M D-ribose (or 1.5 M D-glucose) in 50 mM NaH2PO4 buffer (pH 7.0), and 10% dimethyl sulfoxide (DMSO) or the test phlorotannins in a 1:8:1 ratio and incubating the mixture at 37 °C for 6 days (2 weeks for D-glucose induced insulin glycation). Vanillin was used as a negative control for D-ribose induced insulin glycation, whereas rutin was used as a positive control for D-glucose induced insulin glycation. After incubation, the reaction mixture was measured at an excitation wavelength of 320 nm and emission wavelength of 410 nm using a fluorescence microplate reader (Gemini XPS).

bovine insulin [2] = biological target: T2, bovine insulin; experiment: D-ribose-induced non-enzymatic insulin glycation assay; assay type: biochemical; settings: for inhibitory activity on D-ribose-induced insulin glycation: at 100 µM
Protocol: as §1, §2

[3] = test system: lipid peroxidation in rat brain homogenates; experiment: Lipid peroxidation (TBARS) assay in whole rat brain homogenates; assay type: biochemical; settings: Fe2+-treated rat brain homogenates, MDA level, mean ± SD, n = 3
Protocol: Whole rat brain homogenates were prepared from freshly killed Sprague Dawley rats (male, 6-months old) and provided by the Aging Tissue Bank of Pusan National University. One g of whole rat brain was homogenized in 10 mL of cold 20 mM sodium phosphate buffer containing 140 mM KCl (pH 7.4) and centrifuged at 1300× g for 15 min.
A TBA reactive species (TBARS) assay was used to evaluate the antioxidant activity of the phlorotannins in the rat brain homogenates. An aliquot of the supernatant fraction of the homogenates was mixed with phlorotannins dissolved in 10% DMSO, freshly prepared ferric sulfate (250 μM), and distilled water in a 10:5:3:12 ratio, and then the reaction mixture was incubated at 37 °C for 1 h. The reaction was completed by adding a color reagent containing 0.8% TBA, 8.1% SDS, and a 7.5% (final concentration) acetic acid-NaOH solution (pH 3.4) in a 2:1:2 ratios. The mixture was boiled in a water bath for 1 h. After cooling, the reaction mixture was mixed with an equal volume of n-butanol and centrifuged at 1300× g for 10 min. The absorbance of the upper layer was measured at 532 nm using a spectrophotometer (Molecular Devices). The formation of TBARS was expressed as MDA nmol/mg protein using 1,1,3,3-tetramethoxypropane as a standard. Trolox was used as a positive control.

[4] = parameters: method as in PMID 30744179; settings: pharmacokinetic parameter prediction study; cited from earlier work
[5] = rats, intravenous injection; cited from earlier work
[6] = thioflavin-T fluorescence, Aβ25-35 100 μM, mean ± SD, n = 3, read-out: IC50 Aβ25-35 Aggregation
[7] = bovine insulin, D-glucose, 2 weeks incubation, mean ± SD, n = 3, read-out: IC50 D-Glucose-Induced Insulin Glycation
[8] = bovine insulin, D-ribose, mean ± SD, n = 3, read-out: IC50 D-Ribose-Induced Insulin Glycation
[9] = at 10 μM, thioflavin-T fluorescence

T2 sequence (P01317 25-54 limits assumed): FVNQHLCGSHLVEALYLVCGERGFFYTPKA
T2 sequence (P01317 85-105 limits assumed): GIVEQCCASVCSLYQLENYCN

SMILES | IC50 (Aβ25-35; [6]) | IC50 (bovine insulin [1]; [7]) | IC50 (bovine insulin [2]; [8]) | EC50 [3] | inhibition at 10 µM (Aβ25-35; [9]) | also measured
Oc1cc(O)cc(O)c1 [Phloroglucinol, phloroglucinol] | > 100 µM | > 100 µM | > 100 µM | > 75 µM |  | inhibitory effect on Aβ25-35 self-aggregation (Aβ25-35; at 50 μM): no inhibitory effect; inhibition at 100 µM (bovine insulin [1]; at 100 µM): 40%; inhibitory activity on D-ribose-induced insulin glycation (bovine insulin [2]): weak or no inhibitory activity
Cc1c(C)c2c(c(C)c1O)CCC(C)(C(=O)O)O2 (stereo not shown) [Trolox, reference compound] |  |  |  | 49 ± 3.5 µM |  | 
Oc1cc(O)cc(Oc2c(O)cc(O)c3c2Oc2c(O)cc(O)cc2O3)c1 [Eckol, eckol] | 34.4 ± 1.11 µM | > 100 µM | 259 ± 10.8 µM | 38.6 ± 1.16 µM | 34.5% | CNS penetration [4]: penetrates the CNS moderately
Oc1cc(O)c2oc3cc(O)c4oc5cc(O)cc(O)c5oc4c3oc2c1 [Dioxinodehydroeckol, dioxinodehydroeckol] |  |  |  | 12.4 ± 1.5 µM |  | IC50 (Aβ25-35): 8.31 ± 0.23 µM; inhibition at 10 µM (Aβ25-35): 66.1%; IC50 (bovine insulin [1]): > 100 µM; IC50 (bovine insulin [2]): > 100 µM; inhibitory activity on D-ribose-induced insulin glycation (bovine insulin [2]): weak or no inhibitory activity
COc1cc(C=O)ccc1O [Vanillin, vanillin, reference compound] |  |  | > 500 µM |  |  | activity on D-ribose-induced insulin glycation (bovine insulin [2]; at 500 µM, negative control): no activity
Oc1cc(O)cc(Oc2c(O)cc(O)c3c2Oc2c(O)cc(Oc4c(O)cc(Oc5c(O)cc(O)c6c5Oc5c(O)cc(O)cc5O6)cc4O)cc2O3)c1 [Dieckol, dieckol] | 7.93 ± 0.16 µM | > 100 µM | 63.7 ± 3.83 µM | 13.5 ± 0.38 µM | 67% | BBB passage [5]: effectively passed the BBB
C[C@@H]1O[C@@H](OC[C@H]2O[C@@H](Oc3c(-c4ccc(O)c(O)c4)oc4cc(O)cc(O)c4c3=O)[C@H](O)[C@@H](O)[C@@H]2O)[C@H](O)[C@H](O)[C@H]1O [Rutin, rutin, reference compound] |  | 5.19 ± 1.35 µM |  |  |  | 
Oc1cc(O)cc(Oc2c(O)cc(O)c3c2Oc2c(O)cc4oc5c(Oc6cc(O)cc(O)c6)c(O)cc(O)c5c4c2O3)c1 [Phlorofucofuroeckol-A, phlorofucofuroeckol-A] | 6.18 ± 0.18 µM | 43.5 ± 2.38 µM | 29.5 ± 0.53 µM | 11 ± 0.16 µM | 80% | 
